Results taken from PubChem BioAssay AID2060346 (Molecular Pharmacology Branch, DTP, NCI, 2025).
Values joined by “and” are separate entries in the source; they are usually repeats but may differ in a detail not shown here. Equal entries are not always repeated.

Test system: CN0375-F725-PDC multi-cell spheroids, viability
Experiment: Anticancer human tumor CN0375-F725-PDC patient-derived colon carcinoma cell line growth inhibition [TAK]
Conditions: for viability, T/C: stronger effect = lower value; active = viability on the fitted dose curve at most 10% of control; inactive = the rest
Excerpt: Combinatorial screen of targeted agents with TAK-243 and ipatasertib in multi-cell type tumor spheroids
A high-throughput screen of multi-cell type tumor spheroids was designed to identify active combinations of targeted small molecules and TAK-243 or ipatasertib. Complex spheroids include a stromal component modeled by human endothelial cells (HUVEC) and fibroblasts modeled by human mesenchymal stem cells (MSCs). The concentration ranges selected for each drug and investigational agent were based upon clinically achievable concentrations if the clinical Cmax of the agent was known.
Compounds. The drugs and investigational agents: TAK-243 (785004), ipatasertib (767898), everolimus (733504), selumetinib (741078), bortezomib (756655), trametinib (758246), ixazomib (758254), vemurafenib (761431), dabrafenib (764134), sapanisertib (764658), alpelisib (765974), and copanlisib (816437), were obtained from the National Cancer Institute (NCI) Developmental Therapeutics Program Chemical Repository. The FDA-approved anticancer drug set is available from the NCI Developmental Therapeutics Program. […] The stock solutions were prepared in dimethyl sulfoxide (DMSO, Sigma-Aldrich, St. Louis, MO, cat. D2650) at 800-fold the tested concentration and stored at -70 degrees C prior to their use. All drugs and investigational agents were tested over a range starting from a high concentration at or near the clinical Cmax and decreasing in half-log increments. If the clinical Cmax for an agent had not been determined, the highest concentration tested was 10 microM.
NCI60 Cell Culture. NCI60 cell lines were obtained from the NCI Developmental Therapeutics Program Tumor Repository. For each lot of cells, the Repository performed Applied Biosystems AmpFLSTR Identifiler testing with PCR amplification to confirm consistency with the published Identifier STR profile for each cell line. Cells were kept in continuous culture for no more than 20 passages. The optimal seeding densities for each of the cell lines at each time point assessed were determined prior to performing the concentration response studies. Briefly, the NCI60 human tumor lines were grown as monolayers in RPMI 1640 medium supplemented with 10% FBS and 2 mmol/L L-glutamine.
An additional 2 lines were from the NCI60 cell line panel including melanomas, MALME-3M and SK-MEL-2. Pooled donor human umbilical vein endothelial cells (HUVEC, Lonza, cat. CC-2519) and human mesenchymal stem cells (hMSC, Lonza, cat. PT-2501) were purchased from Lonza (Walkersville, MD).
PDMR cell lines were grown in complete medium (DC medium): Dulbecco's modified Eagle's medium (DMEM)/F12 supplemented with 5% fetal bovine serum (FBS), 2 mM L-glutamine, 100 U/mL penicillin and 100 µg/ml streptomycin, 0.4 µg/ml hydrocortisone, 10 ng/ml epidermal growth factor (EGF) recombinant human protein, 24 µg/mL adenine, and 0.1 mg/mL primocin. During culture from frozen stock vials, PDMR cells were cultured in the same medium containing 10 µM Y-27632 (see Table 3). The PDCs were cultured in complete DMEM/F12 media without 10 microM Y-27632 dihydrochloride for at least two passages prior to the screen. The pooled donor HUVEC and hMSC were cultured in endothelial cell growth medium 2 (PromoCell, Heidelberg, Germany, cat. C-22011) and mesenchymal stem cell growth medium 2 (PromoCell, cat. C-28009), respectively. For all experiments, HUVEC and hMSC were used at passages </=5.
For the pre-screen, cell seeding densities were determined from a titration spanning the range from 5,000 to 313 cells per well. The mct-spheroids including 60% malignant cells, 25% HUVEC and 15% MSC dispensed as a mixture into U-bottom Ultra-Low Attachment 384-well plates (Corning, NY)
High-throughput Drug Combination Screening.
Prior to their inoculation into 384-well plates, malignant cells, HUVEC, and hMSC were removed from T flasks using TrypLE express (Thermo Fisher Scientific, cat. 12605036) and harvested by centrifugation for 5 min at 233 x g. […]
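Also: spheroids exposed to drugs for seven days.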

CC(=O)Nc1cccc(-n2c(=O)n(C3CC3)c(=O)c3c(Nc4ccc(I)cc4F)n(C)c(=O)c(C)c32)c1
10.6 nM and 11.2 nM: IC50 (curve of compound)
inactive: viability, T/C (compound 94.9 pM) 106% and 100% | viability, T/C (compound 0.0003 µM) 96.5% and 91.6% | viability, T/C (compound 0.000949 µM) 78.1% and 77.9% | viability, T/C (compound 0.003 µM) 67.4% and 64.9% | viability, T/C (compound 0.00949 µM) 52.9% and 52.8% | viability, T/C (compound 0.03 µM) 35.6% and 38.6%

CC(C)(C)c1nc(-c2cccc(NS(=O)(=O)c3c(F)cccc3F)c2F)c(-c2ccnc(N)n2)s1
> 10000 nM: IC50 (curve of compound)
inactive: viability, T/C (compound 0.0316 µM) 126% and 115% | viability, T/C (compound 0.1 µM) 130% and 129% | viability, T/C (compound 0.316 µM) 126% and 133% | viability, T/C (compound 1 µM) 112% and 127% | viability, T/C (compound 3.16 µM) 104% and 119% | viability, T/C (compound 10 µM) 110% and 107%

CC(C)CC(NC(=O)C(Cc1ccccc1)NC(=O)c1cnccn1)B(O)O (configuration not stated)
inactive: viability, T/C (compound 31.6 pM) 112% and 110% | viability, T/C (compound 0.0001 µM) 98.7% and 113% | viability, T/C (compound 0.000316 µM) 104% and 103% | viability, T/C (compound 0.001 µM) 109% and 105% | viability, T/C (compound 0.00316 µM) 103% and 106% | viability, T/C (compound 0.01 µM) 34.9% and 35.3%
7.76 nM and 7.87 nM: IC50 (curve of compound)

CC(C)CC(NC(=O)CNC(=O)c1cc(Cl)ccc1Cl)B1OC(=O)CC(CC(=O)O)(C(=O)O)O1 (configuration not stated)
inactive: viability, T/C (compound 0.000316 µM) 113% and 106% | viability, T/C (compound 0.001 µM) 112% and 104% | viability, T/C (compound 0.00316 µM) 103% and 102% | viability, T/C (compound 0.01 µM) 111% and 109% | viability, T/C (compound 0.0316 µM) 78.3% and 75.7% | viability, T/C (compound 0.1 µM) 23.4% and 22.6%
57.2 nM and 55.2 nM: IC50 (curve of compound)

CC(C)NCC(C(=O)N1CCN(c2ncnc3c2C(C)CC3O)CC1)c1ccc(Cl)cc1 (configuration not stated)
inactive: viability, T/C (compound 0.3 µM) 97.1% [middle of 10 runs] | viability, T/C (compound 0.949 µM) 93.7% [middle of 10 runs] | viability, T/C (compound 3 µM) 91.4% [middle of 10 runs] | viability, T/C (compound 9.49 µM) 84.7% [middle of 10 runs] | viability, T/C (compound 30 µM) 83.7% [middle of 10 runs]
> 30000 nM: IC50 (compound alone, run of 02/28/2020) | IC50 (compound alone, run of 03/19/2020)

CC(C)n1nc(-c2ccc3oc(N)nc3c2)c2c(N)ncnc21
inactive: viability, T/C (compound 0.000316 µM) 109% and 106% | viability, T/C (compound 0.001 µM) 105% and 101% | viability, T/C (compound 0.00316 µM) 91.7% and 93.4% | viability, T/C (compound 0.01 µM) 85.5% and 83.8% | viability, T/C (compound 0.0316 µM) 73.1% and 76.7% | viability, T/C (compound 0.1 µM) 58.9% and 61.4%
> 100 nM: IC50 (curve of compound)

CCCS(=O)(=O)Nc1ccc(F)c(C(=O)c2c[nH]c3ncc(-c4ccc(Cl)cc4)cc23)c1F
inactive: viability, T/C (compound 0.316 µM) 113% and 115% | viability, T/C (compound 1 µM) 122% | viability, T/C (compound 3.16 µM) 114% and 109% | viability, T/C (compound 10 µM) 75.1% and 65.5% | viability, T/C (compound 31.6 µM) 118% and 111% | viability, T/C (compound 100 µM) 101% and 111%
> 100000 nM: IC50 (curve of compound)

COC1CC2CCC(C)C(O)(O2)C(=O)C(=O)N2CCCCC2C(=O)OC(C(C)CC2CCC(OCCO)C(OC)C2)CC(=O)C(C)C=C(C)C(O)C(OC)C(=O)C(C)CC(C)C=CC=CC=C1C (configuration not stated)
inactive: viability, T/C (compound 0.000316 µM) 108% and 127% | viability, T/C (compound 0.001 µM) 103% and 118% | viability, T/C (compound 0.00316 µM) 90.9% and 96.7% | viability, T/C (compound 0.01 µM) 88.1% and 93.2% | viability, T/C (compound 0.0316 µM) 84.9% and 77.9% | viability, T/C (compound 0.1 µM) 83.9% and 82.5%
> 100 nM: IC50 (curve of compound)

COc1c(OCCCN2CCOCC2)ccc2c3n(c(=NC(=O)c4cnc(N)nc4)nc12)CCN3
inactive: viability, T/C (compound 0.00316 µM) 96.6% and 99.3% | viability, T/C (compound 0.01 µM) 89.4% and 83.8% | viability, T/C (compound 0.0316 µM) 78.5% and 68.5% | viability, T/C (compound 0.1 µM) 63.8% and 55.3% | viability, T/C (compound 0.316 µM) 42.5% and 39.9% | viability, T/C (compound 1 µM) 34.6% and 29.2%
220 nM and 144 nM: IC50 (curve of compound)

Cc1nc(NC(=O)N2CCCC2C(N)=O)sc1-c1ccnc(C(C)(C)C(F)(F)F)c1 (configuration not stated)
inactive: viability, T/C (compound 0.0316 µM) 102% and 105% | viability, T/C (compound 0.1 µM) 93.8% and 98.5% | viability, T/C (compound 0.316 µM) 92.2% and 85.6% | viability, T/C (compound 1 µM) 85.7% and 77.4% | viability, T/C (compound 3.16 µM) 68.3% and 65.6% | viability, T/C (compound 10 µM) 57.7% and 47.6%
> 10000 nM and 9170 nM: IC50 (curve of compound)

Cn1cnc2c(F)c(Nc3ccc(Br)cc3Cl)c(C(=O)NOCCO)cc21
inactive: viability, T/C (compound 0.00949 µM) 89.7% and 95.5% | viability, T/C (compound 0.03 µM) 79.8% and 82.5% | viability, T/C (compound 0.0949 µM) 64.8% and 61.1% | viability, T/C (compound 0.3 µM) 55.1% and 49.1% | viability, T/C (compound 0.949 µM) 40.8% and 41.4% | viability, T/C (compound 3 µM) 33.3% and 34.5%
420 nM and 267 nM: IC50 (curve of compound)

COC1CC2CCC(C)C(O)(O2)C(=O)C(=O)N2CCCCC2C(=O)OC(C(C)CC2CCC(OCCO)C(OC)C2)CC(=O)C(C)C=C(C)C(O)C(OC)C(=O)C(C)CC(C)C=CC=CC=C1C (configuration not stated) + CC(C)NCC(C(=O)N1CCN(c2ncnc3c2C(C)CC3O)CC1)c1ccc(Cl)cc1
> 100 nM: IC50 (curve of first compound, second compound 0.3 µM) | IC50 (curve of first compound, second compound 0.949 µM) | IC50 (curve of first compound, second compound 3 µM) | IC50 (curve of first compound, second compound 9.49 µM) | IC50 (curve of first compound, second compound 30 µM)
inactive: viability, T/C (second compound 0.3 µM, first compound 0.000316 µM) 97.5% | viability, T/C (second compound 0.3 µM, first compound 0.001 µM) 95.1% | viability, T/C (second compound 0.3 µM, first compound 0.00316 µM) 89.1% | viability, T/C (second compound 0.3 µM, first compound 0.01 µM) 82.5% | viability, T/C (second compound 0.3 µM, first compound 0.0316 µM) 81.1% | viability, T/C (second compound 0.3 µM, first compound 0.1 µM) 81.1% | viability, T/C (second compound 0.949 µM, first compound 0.000316 µM) 99% | viability, T/C (second compound 0.949 µM, first compound 0.001 µM) 94.8% | viability, T/C (second compound 0.949 µM, first compound 0.00316 µM) 84.5% | viability, T/C (second compound 0.949 µM, first compound 0.01 µM) 81.1% | viability, T/C (second compound 0.949 µM, first compound 0.0316 µM) 78.3% | viability, T/C (second compound 0.949 µM, first compound 0.1 µM) 78.2% | viability, T/C (second compound 3 µM, first compound 0.000316 µM) 88.7% | viability, T/C (second compound 3 µM, first compound 0.001 µM) 83.9% | viability, T/C (second compound 3 µM, first compound 0.00316 µM) 83.9% | viability, T/C (second compound 3 µM, first compound 0.01 µM) 77.8% | viability, T/C (second compound 3 µM, first compound 0.0316 µM) 77.4% | viability, T/C (second compound 3 µM, first compound 0.1 µM) 75.9% | viability, T/C (second compound 9.49 µM, first compound 0.000316 µM) 83.3% | viability, T/C (second compound 9.49 µM, first compound 0.001 µM) 84.1% | viability, T/C (second compound 9.49 µM, first compound 0.00316 µM) 80.7% | viability, T/C (second compound 9.49 µM, first compound 0.01 µM) 71.1% | viability, T/C (second compound 9.49 µM, first compound 0.0316 µM) 76% | viability, T/C (second compound 9.49 µM, first compound 0.1 µM) 71% | viability, T/C (second compound 30 µM, first compound 0.000316 µM) 71.3% | viability, T/C (second compound 30 µM, first compound 0.001 µM) 76.8% | viability, T/C (second compound 30 µM, first compound 0.00316 µM) 72.2% | viability, T/C (second compound 30 µM, first compound 0.01 µM) 63.5% | viability, T/C (second compound 30 µM, first compound 0.0316 µM) 75.8% | viability, T/C (second compound 30 µM, first compound 0.1 µM) 68.5%
